Assay results as given in publication PMC5454592, “Pharmacological and Toxicological Properties of the Potent Oral γ-Secretase Modulator BPN-15606” (The Journal of Pharmacology and Experimental Therapeutics, 2017).

What was measured:
PK in rat (i.v./po) = type: in vivo; settings: male, plasma, Sprague–Dawley rats, 5 mg/kg po vs 1 mg/kg i.v.
Procedure: (§1) Male CD-1 mice and male Sprague–Dawley rats were administered a single dose of BPN-15606 by i.v. or oral gavage (po) dose routes to assess oral bioavailability. Mice and rats received BPN-15606 as a single i.v. dose at 1 mg/kg (n = 5) or a single po dose at 5 mg/kg (n = 5). Blood was collected from mice and rats at 5 (i.v. only), 15, and 30 minutes, and 1, 2, 4, 8, and 12 hours postdose for processing to plasma. For mice, brains were collected from both dose groups (i.v. and po) at 1, 4, 8, and 12 hours postdose. For rats, brains were collected from those same animals at the 12-hour time point only. […]
(§2) Data were subjected to noncompartmental analysis using WinNonlin Phoenix Model 200 (for extravascular administration) or Model 201 (for i.v. bolus administration) and the sparse sampling feature; a uniform weighting factor was applied to each data set. Time to maximum plasma concentration (Tmax) and maximum plasma concentration (Cmax) values were determined directly from the data. Area under the plasma concentration–time curve to the last time point (AUClast) values were calculated using the log/linear trapezoidal (i.v. dose) or linear up/log down trapezoidal (po dose). Values were calculated using the plasma data from composite groups. […] The volume of distribution at steady state and clearance were calculated using the i.v. group data. […]

[1] = Repeat-dose (9-day) efficacy study in rats; type: in vivo, Sprague–Dawley rats; settings: male, Sprague-Dawley, rat, in vivo
Procedure: (§3) Male C57BL/6J mice (n = 10/dose level) and male Sprague–Dawley rats (n = 14/dose level) were administered either vehicle (80% polyethylene glycol 400 v/v; 20% sterile water v/v and 0.1% Tween 20 v/v) or BPN-15606 (10, 25, and 50 mg/kg) once daily po for 7 consecutive days (mice) or 5, 25, and 50 mg/kg once daily po for 9 consecutive days (rats). […] Animals were sacrificed 4 hours following the dosing on day 7 of the 7-day oral treatment course (mice) and on day 9 of the 9-day oral treatment course (rats). Plasma and brain extracts were prepared (mice and rats); CSF was aspirated from the cisterna magnum with minimal to no blood contamination (rats only); and tissues were frozen at −70°C. Aβ peptides were quantitated in brain extracts and plasma (mice) or CSF and plasma (rats), as described previously, using Meso Scale multiplex kits and the Meso Scale Sector Imager 6000 ([Kounnas et al., 2010]). Statistical analysis was performed using GraphPad Prism software, and results are expressed as mean ± S.E.M. Analysis of variance was used to detect a significant effect. Drug levels of BPN-15606 were measured in plasma and brain extracts using the bioanalytical methods detailed above.

Aβ42 and Aβ40 levels = assay: Repeat-dose (9-day) efficacy study in rats; type: in vivo, Sprague–Dawley rats
Procedure: as §3

PK in mouse (i.v./po) = type: in vivo; settings: male, plasma, CD-1 mice, 5 mg/kg po vs 1 mg/kg i.v.
Procedure: as §1, §2

HReN-mGAP AD ReN cells = assay: CytoTox-ONE (lactate dehydrogenase) assay in 3D culture; type: cell-based; settings: 70 nM; 1-week-old treated media
Procedure: HReN-mGAP AD ReN cell expression APP^Swedish/London and Presenilin 1^ΔE9 were previously described ([Choi et al., 2014]). The HReN-mGAP AD ReN cells were three-dimensional (3D)–differentiated for 7 weeks, as previously described ([Choi et al., 2014]). The cultures were then harvested and analyzed for the soluble (conditioned media) and insoluble Aβ40/42/38 and p-tau/tau levels, using Meso Scale Discovery electrochemiluminescence system. BPN-15606 (70 nM) and the same volume of DMSO controls were treated in the last 4 weeks. The potential toxicity of the drugs was monitored by CytoTox-ONE (lactate dehydrogenase) assay after 1 week of the treatments. At the end of the treatments, the soluble (media) and the insoluble fractions (5 M GuHCl-soluble extracts) were collected and analyzed for Aβ38, Aβ40, and Aβ42 with MSD enzyme-linked immunosorbent assay (ELISA; V-Plex 6E10 Aβ40/Aβ42/Aβ38 kit). The custom-made plates were used for detecting total tau (BT2; ThermoFisher Scientific, Sommerset, NJ) and pThr181 tau (At270; ThermoFisher Scientific, Sommerset, NJ). The insoluble fraction was dissolved in 5 M GuHCl, and pThr181 tau, total tau, Aβ40, Aβ42, and Aβ38 concentrations were determined by MSD ELISA. The levels of the control protein Tuj1 were determined by dot-blot analysis in the GuHCl lysates (data not shown).

in vivo = settings: cynomolgus monkey
Procedure: The objectives of this study were to determine the MTD of BPN-15606, characterize potential toxicity, and calculate toxicokinetic parameters of BPN-15606 in adult male and female cynomolgus macaques following daily po dose administration at a near-MTD dose of BPN-15606 for 7 consecutive days. In the dose escalation phase to establish the MTD (phase A), male and female cynomolgus macaques (n = 2/sex) were administered single doses of BPN-15606 at 3, 10, 30, 100, and 300 mg/kg, with 2 to 4 days between each dose escalation (Fig. 10). […] The plasma drug concentrations at the approximate Tmax increased in a dose-dependent manner. […] Comprehensive evaluation of clinical pathology parameters (clinical chemistry, hematology), gross pathology, and histopathologic parameters was carried out at SRI International, according to their standardized protocols. Tissues examined histopathologically included the following: liver, lung, stomach, duodenum, colon, spleen, pancreas, thymus, heart, brain, and kidney.

Question: Which bioavailability (PK in rat (i.v./po)) does the source give for COc1nc(-c2cc(C)c(N[C@@H](C)c3ccc(F)cc3)nn2)ccc1-n1cnc(C)c1 [BPN-15606, (S)-N-(1-(4-fluorophenyl)ethyl)-6-(6-methoxy-5-(4-methyl-1H-imidazol-1-yl)pyridin-2-yl)-4-methylpyridazin-3-amine] here?
Answer: > 60%

Question: What about the NOAEL at 9 days [1] of the same compound?
Answer: 50 mg/kg

Question: What about the “safety margin based on dose” value (Aβ42 and Aβ40 levels; rat, NOAEL 50 mg/kg vs lowest efficacious dose 5 mg/kg) of the same compound?
Answer: ≥ 10 fold

Question: What about the “lowering of CSF Aβ42 levels” value (Aβ42 and Aβ40 levels; rats, 5 mg/kg) of the same compound?
Answer: ~40%

Question: And the “lowering of CSF Aβ42 levels” value (Aβ42 and Aβ40 levels; rats, 25 mg/kg)?
Answer: 70–75%

Question: What about the “lowering of plasma Aβ42” value (Aβ42 and Aβ40 levels; rats, 25 mg/kg) of the same compound?
Answer: > 90%

Question: And the clinical observations (Aβ42 and Aβ40 levels; rats, 5, 25, 50 mg/kg po daily for 9 days)?
Answer: all animals appeared normal throughout the study

Question: What about the bioavailability (PK in mouse (i.v./po)) of the same compound?
Answer: > 60%

Question: What about the “toxicity (Cytotox cell death lactate dehydrogenase assay)” value (HReN-mGAP AD ReN cells) of the same compound?
Answer: did not induce any significant toxicity

Question: What about the NOAEL (in vivo; both sexes) of the same compound?
Answer: 30 mg/kg

Question: What about the MTD (in vivo; both sexes, MTD after a single-dose administration) of the same compound?
Answer: 300 mg/kg

Question: And the “NOEL after a single dose” value (in vivo; both)?
Answer: 30 mg/kg

Question: And the “clinical signs after single doses” value (in vivo; both)?
Answer: limited to emesis in the 100 and 300 mg/kg groups

Question: What about the “clinical pathology parameters after single-dose administration” value (in vivo) of the same compound?
Answer: no apparent changes

Question: What about the “clinical signs on repeat dosing” value (in vivo; po, 300 mg/kg) of the same compound?
Answer: emesis, reduced appetite, and reduced stool

Question: And the “gross findings at necropsy” value (in vivo; po, 300 mg/kg)?
Answer: no gross findings at necropsy

Question: And the hepatic histopathological findings (in vivo; po, 300 mg/kg)?
Answer: minimal sinusoidal leukocytosis in two male monkeys and moderate focal fatty infiltration in one female monkey

Question: What about the renal histopathological findings (in vivo; po, 300 mg/kg) of the same compound?
Answer: mild to moderate proximal tubular necrosis, casts, and dilation with cortical and medullary subacute inflammation
